The values that follow come from patent publication US9910031B2, “Compositions and methods for modulating c-Rel-dependent cytokine production” (Synta Pharmaceuticals Corporation, priority 2003, dated 2018).

SMILES strings stand for the structures.

For one experiment, the system named is NFκB. Briefly: Gel-shift assay of NFκB binding to the IL-12 p40 promoter site, THP-1 nuclear extracts. The experiment is classed as cell-based, human. The following applies: IFN-γ-primed, SAC-stimulated THP-1; 1 μM Compound 1 or 10 mM ASA. As to the method: Nuclear extracts were prepared from IFN-γ-primed THP-1 cells that had been treated with or without SAC and incubated in the presence or absence of 1 μM Compound 1 or 10 mM ASA. Isolation of nuclear extracts was accomplished by first suspending THP-1 cells in 20 volumes of buffer A containing 10 mM KCl, 10 mM HEPES (pH 7.9), 1 mM MgCl2, 1 mM dithiothreitol (DTT), 0.1% Nonidet p40 (NP-40), and 0.5 mM phenylmethylsulfonyl fluoride (PMSF) and then homogenizing and centrifuging at 10,000 rpm at 4° C. for 5 min. Nuclear pellets were then suspended in buffer C containing 400 mM NaCl, 20 mM HEPES pH 7.9), 15 mM MgCl2, 0.2 mM EDTA, 1 mM DTT, 25% glycerol, 1 mM PMSF, and 10 μg of leupeptin, 20 μg of pepstatin, and 10 μg of antipain per ml, incubated for 30 min at 4° C., and centrifuge at 14,000 rpm for […]. The supernatants were dialyzed against buffer D containing 100 mM NaCl, 20 mM HEPES (pH 7.9), 20% glycerol, 1 mM PMSF, and 1 mM DTT.
The extracts obtained from this process were used in gel-shift assays using oligonucleotides containing the NFκB target sequence corresponding to the region −121 to −102 from the transcription initiation site of IL-12 p40 or a mutated NFκB binding site. […] This interaction was specific as it was competed away by an excess of unlabeled probe, but not by a mutated oligonucleotide in which two base-pairs were substituted. […]

A further experiment deals with IL-12 p70. Kind of experiment: Inhibition of production of IL-12 p70 protein. The experiment is classed as cell-based, human. Conditions: 1 μM Compound 1; 10 mM ASA. On the procedure: Cells were co-transfected with the vector pCMV (BD Biosciences Clontech) in which the constitutively active CMV promoter directs β-galactosidase expression for the monitoring of transfection efficiency. Luciferase and β-galactosidase activity were determined in cell extracts prepared according to the Luciferase assay system (Promega) and Luminescent n-gal Detection system (BD Biosciences Clontech). Luciferase activity was then normalized using the β-galactosidase value. […] ELISA was performed by the following method. Human IL-12 p70 (heterodimer) was assayed using ELI-PAIR kit from Cell Sciences (Norwood, Mass.), according to the manufacturer's instructions. Human IL-12 p40 was assayed using ELISA kit from Cell Sciences (Norwood, Mass.) according to the manufacturer's instructions.
The extracts obtained from this process were used in gel-shift assays using oligonucleotides containing the NFκB target sequence corresponding to the region −121 to −102 from the transcription initiation site of IL-12 p40 or a mutated NFκB binding site. […] This interaction was specific as it was competed away by an excess of unlabeled probe, but not by a mutated oligonucleotide in which two base-pairs were substituted. […] This is expected since a compound that potently blocks NFkB have a far broader cytokine inhibitory profile than Compound 1/Compound 2.

In the case of `CC(=O)Oc1ccccc1C(=O)O` [ASA, reference compound], the “NFκB binding to p40 promoter probe (gel shift)” value in the experiment with NFκB is listed as “reduced the binding significantly”. Also, the “percent inhibition of production of IL-12 p70 protein” value in the experiment with IL-12 p70 is given as 45%.
